Assays:
Type in all cases: in vivo
[1] = tested on: Kochia (Kochia scoparia); test: Test A preemergence
In short: (§1)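 Visual injury, scored on a 0–100 scale relative to untreated controls, was recorded about 10 d after application. Treatments were a preemergence soil spray over planted seeds or a postemergence spray on plants at the one- to two-leaf stage, 2 to 10 cm tall, all in loam soil–sand blend in the greenhouse.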

[2] = tested on: barnyardgrass (Echinochloa crus-galli); test: Test A preemergence
In short: as §1

[3] = tested on: giant foxtail (Setaria faberii); test: Test A preemergence
In short: as §1

[4] = tested on: pigweed (Amaranthus retroflexus); test: Test A preemergence
[5] = tested on: ragweed (common ragweed, Ambrosia elatior); test: Test A preemergence
In short: as §1

[6] = tested on: ryegrass, Italian (Italian ryegrass, Lolium multiflorum); test: Test A preemergence
In short: as §1

[7] = tested on: Galium (catchweed bedstraw, Galium aparine); test: Test A postemergence; conditions: postemergence, 0 to 100 scale (0 no effect, 100 complete control)
In short: as §1

[8] = tested on: Kochia (Kochia scoparia); test: Test A postemergence; conditions: postemergence, 0 to 100 scale (0 no effect, 100 complete control)
In short: as §1

[9] = tested on: barnyardgrass (Echinochloa crus-galli); test: Test A postemergence; conditions: postemergence, 0 to 100 scale (0 no effect, 100 complete control)
In short: as §1

[10] = tested on: blackgrass (Alopecurus myosuroides); test: Test A postemergence; conditions: postemergence, 0 to 100 scale (0 no effect, 100 complete control)
In short: as §1

[11] = tested on: corn (Zea mays); test: Test A postemergence; conditions: postemergence, 0 to 100 scale (0 no effect, 100 complete control)
In short: as §1

[12] = tested on: giant foxtail (Setaria faberii); test: Test A postemergence; conditions: postemergence, 0 to 100 scale (0 no effect, 100 complete control)
In short: as §1

[13] = tested on: pigweed (Amaranthus retroflexus); test: Test A postemergence; conditions: postemergence, 0 to 100 scale (0 no effect, 100 complete control)
In short: as §1

[14] = tested on: ragweed (common ragweed, Ambrosia elatior); test: Test A postemergence; conditions: postemergence, 0 to 100 scale (0 no effect, 100 complete control)
In short: as §1

[15] = tested on: ryegrass, Italian (Italian ryegrass, Lolium multiflorum); test: Test A postemergence; conditions: postemergence, 0 to 100 scale (0 no effect, 100 complete control)
In short: as §1

[16] = tested on: wheat (Triticum aestivum); test: Test A postemergence; conditions: postemergence, 0 to 100 scale (0 no effect, 100 complete control)
In short: as §1

[17] = tested on: barnyardgrass (Echinochloa crus-galli); test: Test B flooded paddy test; conditions: Flood, 250 g ai/ha; 0 to 100 scale where 0 is no effect and 100 is complete control; 13 to 15 d
In short: (§2)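 Rating scale 0–100 (visual, vs untreated controls) after a 13–15 d greenhouse period; application to the flood layer, 3 cm above soil and maintained; plants at 2-leaf stage when treated.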

[18] = tested on: ducksalad (Heteranthera limosa); test: Test B flooded paddy test; conditions: Flood, 250 g ai/ha; 0 to 100 scale where 0 is no effect and 100 is complete control; 13 to 15 d
In short: as §2

[19] = tested on: rice (Oryra sativa); test: Test B flooded paddy test; conditions: Flood, 250 g ai/ha; 0 to 100 scale where 0 is no effect and 100 is complete control; 13 to 15 d
In short: as §2

[20] = tested on: sedge, umbrella (small-flower umbrella sedge, Cyperus difformis); test: Test B flooded paddy test; conditions: Flood, 250 g ai/ha; 0 to 100 scale where 0 is no effect and 100 is complete control; 13 to 15 d
In short: as §2

[21] = 125 g ai/ha, Preemergence, visual injury after approximately 10 d, 0 to 100 scale where 0 is no effect and 100 is complete control
[22] = 500 g ai/ha, preemergence, 0 to 100 scale, 0 = no effect, 100 = complete control
[23] = 125 g ai/ha, visual rating after approx. 10 d
[24] = 500 g ai/ha, visual injury, approx. 10 d

CC(C)Oc1cccc(C2CN(C)C(=O)C2C(=O)Nc2ccccc2S(C)(=O)=O)c1 (stereo not drawn) [Compound 653]
70: Plant response rating, Kochia [1, 22] | Plant response rating, Pigweed [4, 21] | Plant response rating, Ryegrass, Italian [6, 21] | Plant response rating, Ryegrass, Italian [6, 22] | Plant response rating, Blackgrass [10, 24]
40: Plant response rating, Galium [7, 23] | Plant response rating, Ryegrass, Italian [15, 23] | Plant response rating, Ducksalad [18]
90: Plant response rating, Barnyardgrass [2, 21] | Plant response rating, Barnyardgrass [2, 22] | Plant response rating, Foxtail, Giant [3, 21] | Plant response rating, Pigweed [4, 22] | Plant response rating, Barnyardgrass [9, 24] | Plant response rating, Foxtail, Giant [12, 24]
100: Plant response rating, Foxtail, Giant [3, 22]
30: Plant response rating, Corn [11, 24] | Plant response rating, Wheat [16, 23] | Plant response rating, Barnyardgrass [17]
0: Plant response rating, Kochia [1, 21] | Plant response rating, Kochia [8, 23] | Plant response rating, Kochia [8, 24] | Plant response rating, Corn [11, 23] | Plant response rating, Pigweed [13, 23] | Plant response rating, Pigweed [13, 24] | Plant response rating, Ragweed [14, 23] | Plant response rating, Ragweed [14, 24] | Plant response rating, Rice [19] | Plant response rating, Sedge, Umbrella [20]
60: Plant response rating, Barnyardgrass [9, 23] | Plant response rating, Foxtail, Giant [12, 23] | Plant response rating, Ryegrass, Italian [15, 24] | Plant response rating, Wheat [16, 24]
80: Plant response rating, Ragweed [5, 22]
50: Plant response rating, Ragweed [5, 21] | Plant response rating, Galium [7, 24] | Plant response rating, Blackgrass [10, 23]

From patent US12077503B2, “Substituted cyclic amides and their use as herbicides” (FMC CORPORATION, priority 2015, dated 2024)
